Data reported in patent US10576097B2, “URLC10-derived peptide and vaccine containing same” (ONCOTHERAPY SCIENCE, INC., priority 2014, dated 2020).

Key:
Assay type in all cases: cell-based, human
[1] = test system: peptide-pulsed C1R-A11; assay: In vitro CTL induction, IFN-gamma ELISPOT assay (HLA-A*1101); settings: CTLs induced from HLA-A*1101-positive donors, against peptide-pulsed C1R-A11, compared with control
Source text: (§1) Monocyte-derived dendritic cells (DCs) were used as the antigen-presenting cell to induce a cytotoxic T lymphocyte (CTL) response against peptides presented on human leukocyte antigens (HLAs). As described in the other sections, DCs were generated in vitro (Nakahara S et al., Cancer Res 2003, 63(14): 4112-8). Specifically, peripheral-blood mononuclear cells isolated from healthy volunteers (HLA-A*1101-positive) with the Ficoll-Paque plus solution (Pharmacia) were separated by attaching to plastic tissue culture dishes (Becton Dickinson) and concentrated as a monocyte fraction. The monocyte-concentrated population was cultured in the presence of 1000 IU/ml granulocyte macrophage colony-stimulating factor (R&D System) and 1000 IU/ml interleukin(IL)-4 (R&D System) in an AIM-V medium (Invitrogen) containing 2% heat-inactivated autologous serum (AS). After seven days of culturing, the cytokine-induced DCs were pulsed with 20 micro-g/ml each of the synthesized peptides in an AIM-V medium at 37 degrees C. for three hours in the presence of 3 micro-g/ml beta 2-microglobulin. The generated cells appeared to express on their cell surface DC-associated molecules such as CD80, CD83, CD86 and HLA class II (data not shown). Next, these peptide-pulsed DCs were inactivated by X-ray irradiation (20 Gy), and mixed in a 1:20 ratio with autologous CD8^+ T cells obtained by positive selection using the CD8 Positive Isolation Kit (Dynal). These culture products were seeded in a 48-well plate (Corning). Each well was made to contain 1.5×10^4 peptide-pulsed DCs, 3×10^5 CD8^+ T cells and 10 ng/ml IL-7 (R&D System) in 0.5 ml of the AIM-V/2% AS medium. Three days later, these culture products were added with a final concentration of 20 IU/ml IL-2 (CHIRON). On day 7 and day 14, T cells were further stimulated with peptide-pulsed autologous DCs. The DCs were prepared every time by the same method as above. On day 21, after the third peptide stimulation, CTLs were examined against the peptide-pulsed C1R-A11 by a human interferon (IFN)-gamma enzyme-linked immunospot (ELISPOT) assay (Tanaka H et al., Br J Cancer 2001, 84(1): 94-9; Umano Y et al., Br J Cancer 2001, 84(8): 1052-7; Uchida N et al., Clin Cancer Res 2004, 10(24): 8577-86; Suda T et al., Cancer Sci 2006, 97(5): 411-9; Watanabe T et al., Cancer Sci 2005, 96(8): 498-506).
To examine specific CTL activity, an IFN-gamma ELISPOT assay and an IFN-gamma enzyme-linked immunosorbent assay (ELISA) were performed. Specifically, peptide-pulsed C1R-A11 (1×10^4 cells/well) was prepared as the stimulator cell. The induced CTLs, i.e., CTL lines and CTL clones, were used as the responder cell. The IFN-gamma ELISPOT assay and IFN-gamma ELISA were performed according to the manufacturer's manual.

[2] = test system: peptide-pulsed C1R-A03; assay: In vitro CTL induction, IFN-gamma ELISPOT assay (HLA-A*0301); settings: CTLs induced from HLA-A*0301-positive donors, against peptide-pulsed C1R-A03, compared with control
Source text: as §1, with “(HLA-A*0301-positive)” for “(HLA-A*1101-positive)”, “C1R-A03” for “C1R-A11”
(§2) To examine specific CTL activity, an IFN-gamma ELISPOT assay and an IFN-gamma enzyme-linked immunosorbent assay (ELISA) were performed. Specifically, peptide-pulsed C1R-A03 (1×10^4 cells/well) was prepared as the stimulator cell. The induced CTLs, i.e., CTL lines and CTL clones, were used as the responder cell. The IFN-gamma ELISPOT assay and IFN-gamma ELISA were performed according to the manufacturer's manual.

[3] = test system: C1R-A03 cells pulsed with the respective peptide; assay: IFN-gamma ELISA of CTL lines and CTL clones (HLA-A*0301)
Protocol: CTLs were propagated in culture using methods similar to those disclosed by Riddell et al. (Walter E A et al., N Engl J Med 1995, 333(16): 1038-44; Riddell S R et al., Nat Med 1996, 2(2): 216-23). The CTLs were co-cultured in a total of 25 ml AIM-V medium containing 5% AS (AIM-V/5% AS) and 40 ng/ml anti-CD3 antibody with two types of Mitomycin C-treated human B lymphoblastoid cell lines at 5×10^6 cells/flask. One day after beginning of the culturing, 120 IU/ml IL-2 was added to the culture. On days 5, 8 and 11, a fresh AIM-V/5% AS medium containing 30 IU/ml IL-2 was added to the culture (Tanaka H et al., Br J Cancer 2001, 84(1): 94-9; Umano Y et al., Br J Cancer 2001, 84(8): 1052-7; Uchida N et al., Clin Cancer Res 2004, 10(24): 8577-86; Suda T et al., Cancer Sci 2006, 97(5): 411-9; Watanabe T et al., Cancer Sci 2005, 96(8): 498-506).
Dilution of CTLs was carried out to make 1 and 10 cells/well in 96 round-bottomed microtiter plates (Nalge Nunc International). The CTLs were co-cultured with two types of Mitomycin C-treated human B lymphoblastoid cell lines at 1×10^4 cells/well in a total of 150 micro-l/well 5% AS-containing AIM-V (AIM-V/5% AS) medium with 30 ng/ml anti-CD3 antibody and 125 IU/ml IL-2. Ten days later, IL-2 was added to the medium at 50 micro-l/well to reach a final concentration of 125 IU/ml. On day 14, the CTL activity was tested, and the CTL clones were propagated using the same method as described above (Uchida N et al., Clin Cancer Res 2004, 10(24): 8577-86; Suda T et al., Cancer Sci 2006, 97(5): 411-9; Watanabe T et al., Cancer Sci 2005, 96(8): 498-506).
as §2

| Sequence | peptide-specific CTL activity (IFN-gamma production) [2] | other results |
| --- | --- | --- |
| ALLLVVALPR (a peptide derived from URLC10) [SEQ ID NO 12, URLC10-derived 10mer peptide, start position 63] | potent IFN-gamma production | peptide-specific CTL activity (IFN-gamma production) [1]: specific IFN-gamma production was not observed |
| AMERPKPEEK (a peptide derived from URLC10) [SEQ ID NO 16, URLC10-derived 10mer peptide, start position 149] | potent IFN-gamma production | – |
| CSAGCAAMER (a peptide derived from URLC10) [SEQ ID NO 15, URLC10-derived 10mer peptide, start position 143] | potent IFN-gamma production | – |
| GLWLAILLLL (a peptide derived from URLC10) [SEQ ID NO 27, URLC10-derived 10mer peptide, start position 204] | potent IFN-gamma production | – |
| GPPINSSVFK (a peptide derived from URLC10) [SEQ ID NO 17, URLC10-derived 10mer peptide, start position 183] | potent IFN-gamma production | – |
| IAAVKIFPR (a peptide derived from URLC10) [SEQ ID NO 3, URLC10-derived 9mer peptide, start position 127] | potent IFN-gamma production | – |
| ILLLLASIAA (a peptide derived from URLC10) [SEQ ID NO 30, URLC10-derived 10mer peptide, start position 209] | potent IFN-gamma production | – |
| KIFPRFFMV (a peptide derived from URLC10) [SEQ ID NO 6, URLC10-derived 9mer peptide, start position 131] | potent IFN-gamma production | – |
| LLEEPMPFFY (a peptide derived from URLC10) [SEQ ID NO 18, URLC10-derived 10mer peptide, start position 161] | potent IFN-gamma production | – |
| LLLVVALPR (a peptide derived from URLC10) [SEQ ID NO 5, URLC10-derived 9mer peptide, start position 64] | potent IFN-gamma production | – |
| MPFFYLKCCK (a peptide derived from URLC10) [SEQ ID NO 22, URLC10-derived 10mer peptide, start position 166] | potent IFN-gamma production | IFN-gamma production of CTL clone ([3]; CTL clone by limiting dilution, against peptide-pulsed C1R-A03 cells): Potent IFN-gamma production; IFN-gamma production of CTL line ([3]; CTL line against peptide-pulsed versus non-pulsed target cells): potent IFN-gamma production |
| RGGRGSPYR (a peptide derived from URLC10) [SEQ ID NO 9, URLC10-derived 9mer peptide, start position 18] | – | peptide-specific CTL activity (IFN-gamma production) [1]: potent IFN-gamma production |
| RQAPAGGRR (a peptide derived from URLC10) [SEQ ID NO 8, URLC10-derived 9mer peptide, start position 7] | specific IFN-gamma production was not observed | – |
| RVWCHVCER (a peptide derived from URLC10) [SEQ ID NO 1, URLC10-derived 9mer peptide, start position 98] | potent IFN-gamma production | peptide-specific CTL activity (IFN-gamma production) [1]: potent IFN-gamma production |
| VIAAVKIFPR (a peptide derived from URLC10) [SEQ ID NO 14, URLC10-derived 10mer peptide, start position 126] | potent IFN-gamma production | – |
